Measured values: patent publication EP1077981B1, “NOVEL CEPHALOSPORIN COMPOUNDS, PROCESSES FOR PREPARATION THEREOF AND ANTIMICROBIAL COMPOSITIONS CONTAINING THE SAME” (LG CHEMICAL LIMITED, priority 1998, dated 1999)
Values after ≈ are worked out from the molar mass of the structure shown. Where two headings read alike, the source gives them in different places.

How the values were obtained:
Test in all cases: MIC against standard strains (agar dilution)
Type in all cases: cell-based
[1] = system: Morganella morganii 1375E
Protocol: (§1) Test example 1: Measurement of Minimum Inhibitory Concentration (MIC)
(§2) Specifically, test compounds were diluted by 2-fold dilution method and dispersed in Mueller-Hinton agar medium and then, 2µℓ of test strains were inoculated at a concentration of 10^7 cfu(colony forming unit)/mℓ on the medium and incubated for 20 hours at 37°C.

Escherichia coli 3190Y = system: Escherichia coli 3190Y
Protocol: as §1, §2

[2] = system: Klebsiella pneumoniae 2011E
Protocol: as §1, §2

[3] = system: Escherichia coli TEM3 3455E; details: TEM33455E, 20 h
Protocol: as §1, §2

Staphylococcus aureus 77 = system: Staphylococcus aureus 77
Protocol: as §1, §2

S. aureus = details: Staphylococcus aureus, Mueller-Hinton agar, 10^7 cfu/mℓ, 20 hours at 37°C
Protocol: as §1, §2

[4] = system: Enterococcus faecalis 29212
Protocol: as §1, §2

[5] = system: Pseudomonas aeruginosa 6065Y
Protocol: as §1, §2

[6] = system: Escherichia coli TEM9 2639E; details: TEM92639E
Protocol: as §1, §2

Escherichia coli 851E = system: Escherichia coli 851E
Protocol: as §1, §2

[7] = system: Enterobacter cloacae IND+VE 1194E
Protocol: as §1, §2

H. influenzae = details: Haemophilus influenzae; H. influenzae; Mueller-Hinton agar, 10^7 cfu/mℓ, 20 hours at 37°C; read-out: MIC
Protocol: as §1, §2

[8] = system: Moraxella catarrhalis 25240
Protocol: as §1, §2

[9] = system: Serratia marcescens 1826E
Protocol: as §1, §2

Escherichia coli 10536 = system: Escherichia coli 10536
Protocol: as §1, §2

[10] = system: Klebsiella aerogenes K1+ 1082E
Protocol: as §1, §2

[11] = system: Staphylococcus aureus giorgio
Protocol: as §1, §2

Proteus vulgaris 6059 = system: Proteus vulgaris 6059
Protocol: as §1, §2

Enterobacter cloacae P99 = system: Enterobacter cloacae P99
Protocol: as §1, §2

[12] = system: Citrobacter diversus 2046E; details: Citrobacter koseri
Protocol: as §1, §2

[13] = system: Escherichia coli TEM1 1193E; details: TEM11193E, 20 h
Protocol: as §1, §2

[14] = system: Salmonella typhimurium 14028; details: Salmonella enterica
Protocol: as §1, §2

S. pneumoniae = details: Streptococcus pneumoniae, Mueller-Hinton agar, 10^7 cfu/mℓ, 20 hours at 37°C
Protocol: as §1, §2

[15] = system: Staphylococcus aureus 6538p
Protocol: as §1, §2

[16] = system: Klebsiella aerogenes SHV-1 1976E
Protocol: as §1, §2

[17] = system: Citrobacter freundii 8090
Protocol: as §1, §2

[18] = system: Moraxella catarrhalis C2431
Protocol: as §1, §2

[19] = system: Staphylococcus epidermidi 887E
Protocol: as §1, §2

P. vulgaris = details: Proteus vulgaris, Mueller-Hinton agar, 10^7 cfu/mℓ, 20 hours at 37°C
Protocol: as §1, §2

[20] = system: Staphylococcus aureus 241
Protocol: as §1, §2

[21] = system: Acinetobacter calcoaceticu 15473
Protocol: as §1, §2

E. coli = details: Escherichia coli, Mueller-Hinton agar, 10^7 cfu/mℓ, 20 hours at 37°C
Protocol: as §1, §2

[22] = system: Pseudomonas aeruginosa 1912E
Protocol: as §1, §2

SMILES: CC(C)(O/N=C(\C(=O)N[C@@H]1C(=O)N2C(C(=O)[O-])=C(C[n+]3ccccc3)CS[C@H]12)c1csc(N)n1)C(=O)O [Ceftazidime, reference compound]
- MIC ([1]; Morganella morganii 1375E, Mueller-Hinton agar, 20 hours at 37°C, read-out: MIC): 0.063 µg/mL (≈ 0.115 µM)
- MIC (Escherichia coli 3190Y; Escherichia coli 3190Y, Mueller-Hinton agar, 20 hours at 37°C, read-out: MIC): 0.031 µg/mL (≈ 0.0567 µM)
- MIC ([2]; Klebsiella pneumoniae 2011E, Mueller-Hinton agar, 20 hours at 37°C, read-out: MIC): 0.5 µg/mL (≈ 0.915 µM)
- MIC [3]: 8 µg/mL (≈ 14.6 µM)
- MIC (Staphylococcus aureus 77; Staphylococcus aureus 77, Mueller-Hinton agar, 20 hours at 37°C, read-out: MIC): 32 µg/mL (≈ 58.5 µM)
- MIC (S. aureus): 4 µg/mL (≈ 7.32 µM)
- MIC ([4]; Enterococcus faecalis 29212, Mueller-Hinton agar, 20 hours at 37°C, read-out: MIC): > 128 µg/mL
- MIC ([5]; Pseudomonas aeruginosa 6065Y, Mueller-Hinton agar, 20 hours at 37°C, read-out: MIC): 32 µg/mL (≈ 58.5 µM)
- MIC ([6]; Escherichia coli TEM9 2639E, Mueller-Hinton agar, 20 hours at 37°C, read-out: MIC): > 128 µg/mL
- MIC (Escherichia coli 851E; Escherichia coli 851E, Mueller-Hinton agar, 20 hours at 37°C, read-out: MIC): 0.063 µg/mL (≈ 0.115 µM)
- MIC ([7]; Enterobacter cloacae IND+VE 1194E, Mueller-Hinton agar, 20 hours at 37°C, read-out: MIC): 0.5 µg/mL (≈ 0.915 µM)
- MIC (H. influenzae): 0.063 µg/mL (≈ 0.115 µM)
- MIC ([8]; Moraxella catarrhalis 25240, Mueller-Hinton agar, 20 hours at 37°C, read-out: MIC): 0.016 µg/mL (≈ 0.0293 µM)
- MIC ([9]; Serratia marcescens 1826E, Mueller-Hinton agar, 20 hours at 37°C, read-out: MIC): 0.25 µg/mL (≈ 0.457 µM)
- MIC (Escherichia coli 10536; Escherichia coli 10536, Mueller-Hinton agar, 20 hours at 37°C, read-out: MIC): 0.063 µg/mL (≈ 0.115 µM)
- MIC ([10]; Klebsiella aerogenes K1+ 1082E, Mueller-Hinton agar, 20 hours at 37°C, read-out: MIC): 0.25 µg/mL (≈ 0.457 µM)
- MIC ([11]; Staphylococcus aureus giorgio, Mueller-Hinton agar, 20 hours at 37°C, read-out: MIC): 4 µg/mL (≈ 7.32 µM)
- MIC (Proteus vulgaris 6059; Proteus vulgaris 6059, Mueller-Hinton agar, 20 hours at 37°C, read-out: MIC): 0.031 µg/mL (≈ 0.0567 µM)
- MIC (Enterobacter cloacae P99; Enterobacter cloacae P99, Mueller-Hinton agar, 20 hours at 37°C, read-out: MIC): 32 µg/mL (≈ 58.5 µM)
- MIC ([12]; Citrobacter diversus 2046E, Mueller-Hinton agar, 20 hours at 37°C, read-out: MIC): 0.25 µg/mL (≈ 0.457 µM)
- MIC [13]: 0.13 µg/mL (≈ 0.238 µM)
- MIC ([14]; Salmonella typhimurium 14028, Mueller-Hinton agar, 20 hours at 37°C, read-out: MIC): 0.25 µg/mL (≈ 0.457 µM)
- MIC (S. pneumoniae): 8 µg/mL (≈ 14.6 µM)
- MIC ([15]; Staphylococcus aureus 6538p, Mueller-Hinton agar, 20 hours at 37°C, read-out: MIC): 16 µg/mL (≈ 29.3 µM)
- MIC ([16]; SHV11976E, Klebsiella aerogenes SHV-1 1976E, Mueller-Hinton agar, 20 hours at 37°C, read-out: MIC): 0.25 µg/mL (≈ 0.457 µM)
- MIC ([17]; Citrobacter freundii 8090, Mueller-Hinton agar, 20 hours at 37°C, read-out: MIC): 0.13 µg/mL (≈ 0.238 µM)
- MIC ([18]; Moraxella catarrhalis C2431, Mueller-Hinton agar, 20 hours at 37°C, read-out: MIC): 0.031 µg/mL (≈ 0.0567 µM)
- MIC ([19]; Staphylococcus epidermidi 887E, Mueller-Hinton agar, 20 hours at 37°C, read-out: MIC): > 128 µg/mL
- MIC (P. vulgaris): 0.031 µg/mL (≈ 0.0567 µM)
- MIC ([20]; Staphylococcus aureus 241, Mueller-Hinton agar, 20 hours at 37°C, read-out: MIC): > 128 µg/mL
- MIC ([21]; Acinetobacter calcoaceticu 15473, Mueller-Hinton agar, 20 hours at 37°C, read-out: MIC): 2 µg/mL (≈ 3.66 µM)
- MIC (E. coli): 0.031 µg/mL (≈ 0.0567 µM)
- MIC ([22]; Pseudomonas aeruginosa 1912E, Mueller-Hinton agar, 20 hours at 37°C, read-out: MIC): 1 µg/mL (≈ 1.83 µM)

SMILES: C#CCO/N=C(\C(=O)NC1C(=O)N2C(C(=O)O)=C(Sc3cc(N)nc(N)n3)CSC12)c1csc(N)n1 (stereo not shown) [compound 28, 7-[(Z)-2-(2-amino-thiazol-4-yl)-2-propyn-2-yioxyimino-acetylamino]-3-(2,6-diamino-pyrimidin-4-ylsulfanyl)-8-oxo-5-thia1-aza-bicyclo[4,2,0]oct-2-ene-2-carboxylic acid]
- MIC ([1]; Morganella morganii, 1375E, 20 h): 0.25 µg/mL (≈ 0.457 µM)
- MIC (Escherichia coli 3190Y; Escherichia coli, 3190Y, 20 h): 0.13 µg/mL (≈ 0.237 µM)
- MIC ([2]; Klebsiella pneumoniae, 2011E, 20 h): 2 µg/mL (≈ 3.65 µM)
- MIC [3]: 16 µg/mL (≈ 29.2 µM)
- MIC (Staphylococcus aureus 77; Staphylococcus aureus, 77, 20 h): 4 µg/mL (≈ 7.3 µM)
- MIC ([4]; Enterococcus faecalis, 29212, 20 h): 32 µg/mL (≈ 58.4 µM)
- MIC ([5]; Pseudomonas aeruginosa, 6065Y, 20 h): 64 µg/mL (≈ 117 µM)
- MIC ([6]; Escherichia coli, 20 h): 64 µg/mL (≈ 117 µM)
- MIC (Escherichia coli 851E; Escherichia coli, 851E, 20 h): 0.25 µg/mL (≈ 0.457 µM)
- MIC ([7]; Enterobacter cloacae, 20 h): > 64 µg/mL
- MIC ([8]; Moraxella catarrhalis, 25240, 20 h): 0.016 µg/mL (≈ 0.0292 µM)
- MIC ([9]; Serratia marcescens, 1826E, 20 h): 8 µg/mL (≈ 14.6 µM)
- MIC (Escherichia coli 10536; Escherichia coli, 10536, 20 h): 0.25 µg/mL (≈ 0.457 µM)
- MIC ([10]; Klebsiella aerogenes, 20 h): > 64 µg/mL
- MIC ([11]; Staphylococcus aureus, 20 h): 0.5 µg/mL (≈ 0.913 µM)
- MIC (Proteus vulgaris 6059; Proteus vulgaris, 6059, 20 h): 0.031 µg/mL (≈ 0.0566 µM)
- MIC (Enterobacter cloacae P99; Enterobacter cloacae, P99, 20 h): > 64 µg/mL
- MIC ([12]; 2046E, 20 h): > 64 µg/mL
- MIC [13]: 0.5 µg/mL (≈ 0.913 µM)
- MIC ([14]; TYPHIMURIUM, 20 h): 1 µg/mL (≈ 1.83 µM)
- MIC ([15]; Staphylococcus aureus, 6538P, 20 h): 1 µg/mL (≈ 1.83 µM)
- MIC ([16]; Klebsiella aerogenes, 20 h): 0.5 µg/mL (≈ 0.913 µM)
- MIC ([17]; Citrobacter freundii, 8090, 20 h): 2 µg/mL (≈ 3.65 µM)
- MIC ([18]; Moraxella catarrhalis, C2431, 20 h): 0.016 µg/mL (≈ 0.0292 µM)
- MIC ([19]; Staphylococcus, 887E, 20 h): 8 µg/mL (≈ 14.6 µM)
- MIC ([20]; Staphylococcus aureus, 241, 20 h): 8 µg/mL (≈ 14.6 µM)
- MIC ([21]; Acinetobacter, 15473, 20 h): 32 µg/mL (≈ 58.4 µM)
- MIC ([22]; Pseudomonas aeruginosa, 1912E, 20 h): 32 µg/mL (≈ 58.4 µM)
